# Results: ChEMBL document CHEMBL6083231, “AANAT kinetics of CoASH-targeted electrophiles of tryptamine and related analogs” (Bioorg Med Chem Lett, 2024)
# Legend:
# [1] = biological target: T1, Serotonin N-acetyltransferase (Homo sapiens, UniProt Q16613); test: Inhibition of AANAT (unknown origin)
# [2] = biological target: T1, Serotonin N-acetyltransferase; test: Inhibition of human AANAT
# T1 sequence (Q16613 whole entry): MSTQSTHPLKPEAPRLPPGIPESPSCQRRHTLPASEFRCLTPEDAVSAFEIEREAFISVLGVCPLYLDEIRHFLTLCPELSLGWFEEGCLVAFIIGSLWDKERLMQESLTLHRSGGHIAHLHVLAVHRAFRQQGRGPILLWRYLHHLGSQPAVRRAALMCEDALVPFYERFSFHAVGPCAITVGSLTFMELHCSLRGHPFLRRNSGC
SMILES,IC50 [1] [µM],IC50 [2] [µM]
O=C(CBr)NCCc1c[nH]c2ccccc12,0.5,–
O=C(CCl)NCCc1c[nH]c2ccccc12,5.2,–
C=CC(=O)NCCc1csc2ccc(OC)cc12,–,25
